Data: patent US3935203A, “Derivatives of 3-oxo-2,3-dihydro-1,4-benzoxazine” (CERPHA, priority 1972, dated 1976)

How the values were obtained:
[1] = test system: pain induced by heat contact stimulation; experiment: Analgesic activity, Eddy's test in mice (hot plate); format: in vivo; details: for ED50 / inhibition in vivo at 400 mg/kg / inhibition in vivo at 200 mg/kg: Mus musculus, po, 0.5 h; for ED50 / ED50 Eddy's test: per os, 30 minutes after administration, heat stimulus; for ED50 Eddy's test: 30 min; for inhibition in vivo at 400 mg/kg: 400 mg/kg per os; for inhibition in vivo at 200 mg/kg: 200 mg/kg per os
Description: (§1) Pain is induced by heat contact stimulation (mice placed on a heating plate kept at 56.5°C) and the time taken to react to the stimulus (licking of the front paws) is measured.
(§2) Batches of 10 animals selected at random are examined 30 minutes after the oral administration of the product to be tested in a gummy suspension.
(§3) The percentage of analgesic activity is established by taking as 100% activity the average response time of the control animals increased by 10 seconds.

[2] = test system: pain induced by the intraperitoneal injection of acetic acid; experiment: Analgesic activity, Koster's test on mice (acetic acid writhing); format: in vivo, male mice; details: for ED50 / inhibition in vivo at 400 mg/kg / inhibition in vivo at 200 mg/kg: Mus musculus, po; for inhibition in vivo at 400 mg/kg: 400 mg/kg per os; for inhibition in vivo at 200 mg/kg: 200 mg/kg per os
Description: (§4) The pain is induced by the intraperitoneal injection of 0.10 ml/10 g of a 3% acetic acid solution.
(§5) The painful crises thus obtained (writhing of the trunk, stretching of the hind legs) are counted for 20 minutes following the injection.
(§6) The product to be tested was administered 30 minutes before the pain had been induced in batches of 10 male mice distributed at random. The percentage of analgesic activity is represented by the percentage decrease in the number of reactions established in relation to the controls.

in vivo = details: mouse, po
[3] = test system: pain (heat stimulus and chemical stimulus); experiment: Antalgic power compared with amidopyrine (Eddy's and Koster's tests); format: in vivo, mice; details: per os, reference amidopyrine
Description: as §1, §2, §3, §4, §5, §6

kaolin oedema = experiment: Anti-oedematous activity, kaolin oedema in rats (Wilhelmi and Domenjoz); format: in vivo, male rats; details: per os; for ED50: Rattus norvegicus, po, paw volume 5 hours after kaolin, read-out: Kaolin oedema test ED50 per os
Description: 3. […] ACTIVITY Kaolin oedema in rats in accordance with […] The product to be tested was orally administered to batches of 8 male rats distributed at random 30 minutes before the intraplantar injection of 0.15 ml. of a 10% kaolin suspension. The volume of the paw is measured by plethysmography 5 hours after injection of the irritant. For each rat, the percentage oedema is evaluated in relation to the initial volume. The percentage activity corresponds to the percentage decrease in oedema (average oedema of the treated animals in comparison with the average oedema of the control animals).

[4] = Table III
[5] = per os, 30 minutes before acetic acid, chemical stimulus

| Compound | ED50 [1] | ED50 [2, 5] | LD50 (in vivo) | ED50 (kaolin oedema) | other results |
| --- | --- | --- | --- | --- | --- |
| Cc1c(N(C)C)c(=O)n(-c2ccccc2)n1C [Amidopyrine, amidopyrine, reference compound] | 300 mg/kg | 120 mg/kg | 1850 mg/kg |  |  |
| CC1Oc2ccc(Cl)cc2N(CC(O)CO)C1=O (stereo not drawn) [Example 1, 2-methyl-3-oxo-4-(2,3-dihydroxypropyl)-6-chloro-2,3-dihydro-1,4-benzoxazine] | 60 mg/kg | 60 mg/kg | 850 mg/kg |  | ED50 Eddy's test [1]: 63 mg/kg; ED50 Koster's test [2, 5]: 57 mg/kg; antalgic power relative to amidopyrine [3]: as much as five times the activity of this reference product |
| CCC1Oc2ccc(Cl)cc2N(CC(O)CO)C1=O (stereo not drawn) [Example 2, 2-ethyl-3-oxo-4-(2,3-dihydroxypropyl)-6-chloro-2,3-dihydro-1,4-benzoxazine] | 60 mg/kg | 60 mg/kg | 1660 mg/kg |  | ED50 Eddy's test [1]: 61 mg/kg; antalgic power relative to amidopyrine [3]: as much as five times the activity of this reference product |
| O=C1COc2ccc(Cl)cc2N1CC(O)CO (stereo not drawn) [Example 3, 3-oxo-4-(2,3-dihydroxypropyl)-6-chloro-2,3-dihydro-1,4-benzoxazine] | 200 mg/kg | 100 mg/kg | 1700 mg/kg | 200 mg/kg | anti-oedematous activity compared with phenylbutazone (kaolin oedema; reference phenylbutazone): comparable with that of phenylbutazone |
| CC1Oc2cc(Br)c(Cl)cc2N(CC(O)CO)C1=O (stereo not drawn) [Example 4, 2-methyl-3-oxo-4-(2,3-dihydroxypropyl)-6-chloro-7-bromo-2,3-dihydro-1,4-benzoxazine] |  |  | > 1500 mg/kg |  | inhibition in vivo at 400 mg/kg [1]: 42%; inhibition in vivo at 400 mg/kg [2]: 68% |
| Cc1ccc2c(c1)N(CC(O)CO)C(=O)C(C)O2 (stereo not drawn) [Example 5, 2-methyl-3-oxo-4-(2,3-dihydroxypropyl)-6-methyl-2,3-dihydro-1,4-benzoxaine] |  |  | > 1500 mg/kg |  | inhibition in vivo at 400 mg/kg [1]: 60%; inhibition in vivo at 400 mg/kg [2]: 66% |
| CCCc1cc(OC)c2c(c1)N(CC(O)CO)C(=O)C(C)O2 (stereo not drawn) [Example 6, 2-methyl-3-oxo-4-(2,3-dihydroxypropyl)-6-n-propyl-8-methoxy-2,3-dihydro-1,4-benzoxazine] |  |  | > 1500 mg/kg |  | inhibition in vivo at 400 mg/kg [1]: 52%; inhibition in vivo at 400 mg/kg [2]: 46% |
| CC1Oc2ccc([N+](=O)[O-])cc2N(CC(O)CO)C1=O (stereo not drawn) [Example 7, 2-methyl-3-oxo-4-(2,3-dihydroxypropyl)-6-nitro-2,3-dihydro-1,4-benzoxazine] | 300 mg/kg | 300 mg/kg | > 1000 mg/kg | 400 mg/kg | DL50 per os in mice [4]: > 1000 mg/kg |
| CCC1Oc2ccccc2N(CC(O)CO)C1=O (stereo not drawn) [Example 8, 2-ethyl-3-oxo-4-(2,3-dihydroxypropyl)-2,3-dihydro-1,4-benzoxazine] |  |  | 1200 mg/kg |  | inhibition in vivo at 200 mg/kg [1]: 5%; inhibition in vivo at 200 mg/kg [2]: 21% |
| CCCC1Oc2ccc(Cl)cc2N(CC(O)CO)C1=O (stereo not drawn) [Example 9, 2-n-propyl-3-oxo-4-(2,3-dihydroxypropyl)-6-chloro-2,3-dihydro-1,4-benzoxazine] | 100 mg/kg | 80 mg/kg | > 1500 mg/kg |  |  |
| CCC1Oc2ccc(Br)cc2N(CC(O)CO)C1=O (stereo not drawn) [Example 10, 2-ethyl-3-oxo-4-(2,3-dihydroxypropyl)-6-bromo-2,3-dihydro-1,4-benzoxazine] | 200 mg/kg | 300 mg/kg | > 1500 mg/kg |  |  |
| COc1ccc2c(c1)N(CC(O)CO)C(=O)C(C)O2 (stereo not drawn) [Example 11, 2-methyl-3-oxo-4-(2,3-dihydroxypropyl)-6-methoxy-2,3-dihydro-1,4-benzoxazine] |  |  | > 1000 mg/kg | 200 mg/kg | inhibition in vivo at 200 mg/kg [1]: 16%; inhibition in vivo at 200 mg/kg [2]: 10%; DL50 per os in mice [4]: > 1000 mg/kg |
| C=CCc1cc(OC)c2c(c1)N(CC(O)CO)C(=O)C(C)O2 (stereo not drawn) [Example 12, 2-methyl-3-oxo-4-(2,3-dihydroxypropyl)-6-allyl-8-methoxy-2,3-dihydro-1,4-benzoxazine] | 300 mg/kg | 300 mg/kg | > 1500 mg/kg |  |  |
| CCCCC1Oc2ccc(Cl)cc2N(CC(O)CO)C1=O (stereo not drawn) [Example 13, 2-n-butyl-3-oxo-4-(2,3-dihydroxypropyl)-6-chloro-2,3-dihydro-1,4-benzoxazine] | 100 mg/kg | 100 mg/kg | 1500 mg/kg |  |  |
| CC(=O)OCC(CN1C(=O)C(C)Oc2ccc(Cl)cc21)OC(C)=O (stereo not drawn) [Example 14, 2-methyl-3-oxo-4-(2,3-diacetoxypropyl)-6-chloro-2,3-dihydro-1,4-benzoxazine] |  |  | > 1500 mg/kg | 400 mg/kg | inhibition in vivo at 400 mg/kg [1]: 43%; inhibition in vivo at 400 mg/kg [2]: 35%; DL50 per os in mice [4]: > 1500 mg/kg |
| CCC1Oc2ccc(Cl)cc2N(CC(COC(C)=O)OC(C)=O)C1=O (stereo not drawn) [Example 15, 2-ethyl-3-oxo-4-(2,3-diacetoxypropyl)-6-chloro-2,3-dihydro-1,4-benzoxazine] |  |  | > 1500 mg/kg | 400 mg/kg | inhibition in vivo at 200 mg/kg [1]: 14%; inhibition in vivo at 200 mg/kg [2]: 20%; DL50 per os in mice [4]: > 1500 mg/kg |
| CC(=O)OCC(CN1C(=O)COc2ccc(Cl)cc21)OC(C)=O (stereo not drawn) [Example 16, 3-oxo-4-(2,3-diacetoxypropyl)-6-chloro-2,3-dihydro-1,4-benzoxazine] |  |  | > 1500 mg/kg | 400 mg/kg | inhibition in vivo at 400 mg/kg [1]: 28%; inhibition in vivo at 400 mg/kg [2]: 51%; DL50 per os in mice [4]: > 1500 mg/kg |
| CCCCC1C(=O)N(c2ccccc2)N(c2ccccc2)C1=O [Phenylbutazone, phenylbutazone, reference compound] |  |  |  | 200 mg/kg |  |
